According to patent EP4678638A1, “NEW E3 UBIQUITIN LIGASE LIGAND, PROTEIN DEGRADATION AGENT AND USE THEREOF” (priority 2023, dated 2024):
Like-named read-outs stand apart in the source and are kept apart here. Blank lines part the entries; values can stand above or below the compound they belong to.

Key:
[1] = tested on: CCRF-CEM; experiment: CCK-8 proliferation, CCRF-CEM; assay type: cell-based, Human; conditions: Homo sapiens, CCRF-CEM; CCK-8; 96 hours; read-out: Inhibitory activity (IC50) on tumor cell proliferation, CCRF-CEM
Procedure, shortened: (§1)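 CCK-8 viability readout; IC50 from growth-inhibition curve fitting. Cells plated, dosed 24h later with a 10-point series, top 10µM, 5-fold steps. Culture at 37°C, 5% CO2.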

[2] = tested on: Jurkat; experiment: CCK-8 proliferation, Jurkat; assay type: cell-based, Human; conditions: Homo sapiens, Jurkat; CCK-8; 96 hours; read-out: Inhibitory activity (IC50) on tumor cell proliferation, Jurkat
Procedure, shortened: as §1

[3] = tested on: CAL-62; experiment: CCK-8 proliferation, CAL-62; assay type: cell-based; conditions: Homo sapiens, 72 hours, read-out: Inhibitory activity (IC50) on tumor cell proliferation, CAL-62
Experimental: (§2) The tumor cells used herein were cultured in a cell culture medium listed in table A1 at 37°C in an incubator with 5% CO2. Prior to experimentation, all cell lines used were correctly identified by STR profiling, and tested negative for mycoplasma contamination using a mycoplasma detection kit through routine screenings. Table A1. Tumor cells and cell culture medium used in the present disclosure
(§3) IC50 values of the compounds of the present disclosure (including the compounds in Table 1, and compounds of examples) were measured using the Meilun Cell Counting Kit-8 kit from Dalian Meilun Biotech Co., Ltd. Assay details are as follows: tumor cells were seeded in a 96-well plate at a density listed in Table A2. After 24h, 100 µL of the inoculated cells were treated with 0.5µL of the compounds of the present disclosure (including the compounds in Tables 1 and 2, and compounds of examples) at 10 different successively decreasing concentrations (starting at the highest concentration of 10µM; 5-fold serial dilutions). After the cells were treated with the compounds of the present disclosure for a period of time, the cell viability detection reagent was added to the culture medium for cell viability assessment according to the instructions provided with the CCK-8 kit. […] The growth inhibition of the compounds of the present disclosure on cells was plotted by Prism Graphpad software, and the IC50 values of the compounds of the present disclosure were calculated therefrom. […] Seeding protocol and treatment time for tumor cells

[4] = tested on: Vcap; experiment: CCK-8 proliferation, Vcap; assay type: cell-based; conditions: Homo sapiens, 96 hours, read-out: Inhibitory activity (IC50) on tumor cell proliferation, Vcap
Experimental: as §2
IC50 values of the compounds of the present disclosure (including the compounds in Table 1, and compounds of examples) were measured using the Meilun Cell Counting Kit-8 kit from Dalian Meilun Biotech Co., Ltd. Assay details are as follows: tumor cells were seeded in a 96-well plate at a density listed in Table A2. After 24h, 100 µL of the inoculated cells were treated with 0.5µL of the compounds of the present disclosure (including the compounds in Tables 1 and 2, and compounds of examples) at 10 different successively decreasing concentrations (starting at the highest concentration of 10µM; 5-fold serial dilutions). […] The growth inhibition of the compounds of the present disclosure on cells was plotted by Prism Graphpad software, and the IC50 values of the compounds of the present disclosure were calculated therefrom. […]

[5] = biological target: T1, human Cereblon WT GST-tagged protein (Homo sapiens, UniProt Q96SW2); experiment: CRBN binding, HTRF (CEREBLON BINDING kit); conditions: Table II-2, CRBN binding screening, HTRF
T1 construct: purchased CISBIO 64BDCRBNPEH
Procedure, shortened: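 Competitive HTRF: GST-tagged human WT Cereblon mixed with compound, Thalidomide-Re tracer and GST Eu antibody, incubated 3 h at room temperature. Signals read at 620 and 665 nm.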

[6] = tested on: TRK; experiment: Western blot degradation of TRK / NTRK (SK-N-AS Cell); assay type: cell-based; conditions: Table D14
Experimental: (§4) Conventional Western blot assay was performed to evaluate the effects of the compounds of the present disclosure on the expression of target proteins in cells.
(§5) (1) Cell Seeding and Protein Harvesting: The selected cells were processed according to the cell seeding procedure and protein harvesting procedure in Table III-2. Table III-2 Cell Seeding and Protein Harvesting Procedures
(§6) (2) To the collected supernatant, 5X SDS sample loading buffer was added, followed by denaturation at 95°C for 5 minutes. The denatured samples were then separated by SDS-PAGE electrophoresis on a polyacrylamide gel. Proteins were transferred to a nitrocellulose membrane (0.45 µm NC membrane), blocked with blocking buffer at room temperature for 1 hour, and subjected to antibody incubation and development procedures according to the antibody manufacturer's instructions (Cell Signaling Technology).
(§7) Half-Maximal Degradation Concentration value (the drug concentration required for degrading proteins by 50%, abbreviated as DC50) reads method: comparing the grayscale values of Western blot bands from drug-treated samples with those from blank DMSO-treated controls, and identifying the drug concentration range at which the grayscale value is half that of the DMSO-treated control bands.
(§8) DC50 values can be calculated using ImageJ software to measure grayscale values of Western blot bands from drug-treated samples. The concentration-response curve is fitted to estimate the drug concentration corresponding to half the grayscale value.
(§9) Target protein remaining (%) refers to the percentage of target protein remaining in hPBMC cells after treatment with protein degrader compounds.
(§10) Calculation method for target protein remaining (%): Use ImageJ software to measure grayscale values of Western blot bands from drug (protein degrader)-treated samples. The grayscale value of drug-treated bands is divided by that of internal control protein bands, and the resulting quotient is normalized to obtain the relative percentage of remaining target protein after protein degrader treatment. […]

[7] = tested on: SW620; experiment: CCK-8 proliferation, SW620; assay type: cell-based; conditions: Homo sapiens, SW-620; CCK-8; 96 hours; read-out: Inhibitory activity (IC50) on tumor cell proliferation, SW620
Procedure, shortened: as §1

[8] = tested on: MGC-803; experiment: CCK-8 proliferation, MGC-803 (heads: MGC80-3, MGC803); assay type: cell-based, Human; conditions: Homo sapiens, MGC-803, CCK-8, 72 hours
Procedure, shortened: as §1

[9] = tested on: LNcap; experiment: CCK-8 proliferation, LNcap; assay type: cell-based; conditions: Homo sapiens, LNCaP; CCK-8; 96 hours; read-out: Inhibitory activity (IC50) on tumor cell proliferation, Lncap
Procedure, shortened: as §1

[10] = tested on: CFPAC-1; experiment: CCK-8 proliferation, CFPAC-1; assay type: cell-based; conditions: Homo sapiens, 72 or 96 hours, read-out: Inhibitory activity (IC50) on tumor cell proliferation, CFPAC-1
Experimental: as §2, §3

[11] = tested on: DU-145; experiment: CCK-8 proliferation, DU-145; assay type: cell-based; conditions: Homo sapiens, 96 hours, read-out: Inhibitory activity (IC50) on tumor cell proliferation, DU-145
Procedure, shortened: as §1

[12] = biological target: T2, AR (Homo sapiens, UniProt P10275+Q96SW2, T878A); experiment: Western blot degradation of AR (LnCap Cell); assay type: cell-based; conditions: Table D11
T2 construct: evaluate the effects of the compounds of the present disclosure on the expression of target proteins in cells; endogenous in cells; host or cells: LnCap
Experimental: as §4, §5, §6, §7
DC50 values can be calculated using ImageJ software to measure grayscale values of Western blot bands from drug-treated samples. […]

[13] = biological target: T3, BCR-ABL (Homo sapiens, UniProt P00519+P11274+Q96SW2, E27K); experiment: Western blot degradation of BCR-ABL (K562 Cell); assay type: cell-based; conditions: Table D15
T3 construct: evaluate the effects of the compounds of the present disclosure on the expression of target proteins in cells; endogenous in cells; host or cells: K562
Experimental: as §4, §5, §6, §7, §8, §9, §10

[14] = read-out: Inhibitory activity (IC50) on tumor cell proliferation, MGC803

T3 sequence (P11274+P00519 fused, stated change not applied): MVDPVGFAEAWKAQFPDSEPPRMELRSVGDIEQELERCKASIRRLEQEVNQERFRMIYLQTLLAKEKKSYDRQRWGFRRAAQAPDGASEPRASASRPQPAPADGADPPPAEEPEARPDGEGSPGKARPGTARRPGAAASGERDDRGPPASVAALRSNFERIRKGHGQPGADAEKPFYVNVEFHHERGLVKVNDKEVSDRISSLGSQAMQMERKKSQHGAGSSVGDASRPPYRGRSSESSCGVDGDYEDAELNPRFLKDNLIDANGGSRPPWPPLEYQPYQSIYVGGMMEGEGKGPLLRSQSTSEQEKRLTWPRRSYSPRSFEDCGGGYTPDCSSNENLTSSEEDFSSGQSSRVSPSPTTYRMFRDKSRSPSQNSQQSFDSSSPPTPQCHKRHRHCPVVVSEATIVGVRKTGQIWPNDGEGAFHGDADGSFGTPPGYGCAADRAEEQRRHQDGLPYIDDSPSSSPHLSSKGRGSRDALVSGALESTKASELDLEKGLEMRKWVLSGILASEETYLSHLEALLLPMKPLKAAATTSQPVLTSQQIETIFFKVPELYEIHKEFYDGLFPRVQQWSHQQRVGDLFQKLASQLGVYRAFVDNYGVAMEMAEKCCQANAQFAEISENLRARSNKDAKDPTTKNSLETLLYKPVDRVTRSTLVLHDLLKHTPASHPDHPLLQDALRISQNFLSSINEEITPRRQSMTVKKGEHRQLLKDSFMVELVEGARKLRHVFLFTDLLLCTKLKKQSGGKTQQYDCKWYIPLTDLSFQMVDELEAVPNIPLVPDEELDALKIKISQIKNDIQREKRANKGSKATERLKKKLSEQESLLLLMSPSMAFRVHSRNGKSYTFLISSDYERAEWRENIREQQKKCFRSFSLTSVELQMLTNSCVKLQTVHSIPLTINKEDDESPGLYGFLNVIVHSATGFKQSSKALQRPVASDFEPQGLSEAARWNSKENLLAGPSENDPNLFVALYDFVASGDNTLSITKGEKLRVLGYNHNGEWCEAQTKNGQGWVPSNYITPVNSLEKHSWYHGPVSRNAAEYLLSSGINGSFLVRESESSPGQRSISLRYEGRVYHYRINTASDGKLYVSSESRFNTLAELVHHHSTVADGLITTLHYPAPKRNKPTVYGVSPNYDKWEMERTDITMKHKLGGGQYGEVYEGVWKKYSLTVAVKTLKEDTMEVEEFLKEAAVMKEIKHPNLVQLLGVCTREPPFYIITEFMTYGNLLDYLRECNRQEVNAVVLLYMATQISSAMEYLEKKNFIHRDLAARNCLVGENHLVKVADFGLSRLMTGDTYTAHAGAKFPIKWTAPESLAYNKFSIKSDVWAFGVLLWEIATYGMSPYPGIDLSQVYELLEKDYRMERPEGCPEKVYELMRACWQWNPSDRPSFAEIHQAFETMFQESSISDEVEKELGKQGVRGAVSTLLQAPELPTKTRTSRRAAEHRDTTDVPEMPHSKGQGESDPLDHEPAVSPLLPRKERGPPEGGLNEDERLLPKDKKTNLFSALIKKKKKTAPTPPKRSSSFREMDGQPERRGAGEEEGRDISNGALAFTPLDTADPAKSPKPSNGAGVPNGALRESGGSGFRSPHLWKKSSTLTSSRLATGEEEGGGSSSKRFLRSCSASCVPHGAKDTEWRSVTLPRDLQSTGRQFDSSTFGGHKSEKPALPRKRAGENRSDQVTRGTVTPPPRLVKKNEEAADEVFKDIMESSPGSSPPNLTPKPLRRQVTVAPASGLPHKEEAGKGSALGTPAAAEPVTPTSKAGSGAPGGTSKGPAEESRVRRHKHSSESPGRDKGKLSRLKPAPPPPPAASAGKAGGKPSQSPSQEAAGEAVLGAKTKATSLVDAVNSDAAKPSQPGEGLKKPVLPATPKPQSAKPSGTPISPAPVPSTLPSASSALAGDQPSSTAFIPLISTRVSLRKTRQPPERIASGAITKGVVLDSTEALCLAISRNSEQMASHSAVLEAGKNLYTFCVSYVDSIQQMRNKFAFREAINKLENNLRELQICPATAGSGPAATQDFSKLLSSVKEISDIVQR
T3 sequence (Q16531 whole entry, stated change not applied, further chain): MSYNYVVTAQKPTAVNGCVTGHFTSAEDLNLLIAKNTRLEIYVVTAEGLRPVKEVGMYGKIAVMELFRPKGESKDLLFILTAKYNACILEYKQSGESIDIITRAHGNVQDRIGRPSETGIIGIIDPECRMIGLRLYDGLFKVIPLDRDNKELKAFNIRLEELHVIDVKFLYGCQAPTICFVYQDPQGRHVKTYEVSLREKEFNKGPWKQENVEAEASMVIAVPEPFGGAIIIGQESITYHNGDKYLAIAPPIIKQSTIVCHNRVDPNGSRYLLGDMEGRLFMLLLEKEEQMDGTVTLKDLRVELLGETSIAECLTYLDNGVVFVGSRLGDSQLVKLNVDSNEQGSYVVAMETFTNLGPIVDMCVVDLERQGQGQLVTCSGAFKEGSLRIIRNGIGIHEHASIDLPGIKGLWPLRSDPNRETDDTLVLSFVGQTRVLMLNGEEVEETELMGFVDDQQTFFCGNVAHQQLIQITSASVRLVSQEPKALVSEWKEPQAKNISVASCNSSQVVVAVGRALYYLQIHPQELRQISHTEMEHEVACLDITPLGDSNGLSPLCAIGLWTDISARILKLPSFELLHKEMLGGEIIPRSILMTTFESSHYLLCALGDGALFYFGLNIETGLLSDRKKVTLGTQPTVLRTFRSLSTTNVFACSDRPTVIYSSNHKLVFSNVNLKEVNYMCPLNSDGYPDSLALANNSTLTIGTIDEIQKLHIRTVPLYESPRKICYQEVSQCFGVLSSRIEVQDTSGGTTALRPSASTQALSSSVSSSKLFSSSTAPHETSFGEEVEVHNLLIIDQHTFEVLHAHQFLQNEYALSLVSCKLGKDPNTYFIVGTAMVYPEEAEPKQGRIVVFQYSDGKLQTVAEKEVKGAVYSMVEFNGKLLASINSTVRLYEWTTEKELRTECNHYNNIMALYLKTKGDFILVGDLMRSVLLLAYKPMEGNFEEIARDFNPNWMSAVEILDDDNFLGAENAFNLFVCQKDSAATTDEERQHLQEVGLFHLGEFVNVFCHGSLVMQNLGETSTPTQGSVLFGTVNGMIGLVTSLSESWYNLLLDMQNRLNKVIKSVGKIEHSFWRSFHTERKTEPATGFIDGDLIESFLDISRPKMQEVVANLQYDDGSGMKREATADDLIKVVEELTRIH
T3 sequence (Q96SW2 whole entry, stated change not applied): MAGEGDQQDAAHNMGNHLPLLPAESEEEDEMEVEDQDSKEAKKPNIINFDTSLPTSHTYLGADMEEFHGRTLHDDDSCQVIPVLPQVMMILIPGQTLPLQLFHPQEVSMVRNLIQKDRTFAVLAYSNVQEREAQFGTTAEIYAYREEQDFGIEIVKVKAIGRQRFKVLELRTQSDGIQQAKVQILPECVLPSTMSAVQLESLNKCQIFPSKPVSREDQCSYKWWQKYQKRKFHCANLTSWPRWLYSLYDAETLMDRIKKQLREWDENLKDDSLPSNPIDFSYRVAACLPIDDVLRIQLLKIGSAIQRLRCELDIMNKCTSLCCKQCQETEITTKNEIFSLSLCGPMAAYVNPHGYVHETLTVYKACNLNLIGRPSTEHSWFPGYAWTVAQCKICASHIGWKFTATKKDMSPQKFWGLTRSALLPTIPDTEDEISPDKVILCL
T1 sequence (Q96SW2 whole entry): as the sequence (Q96SW2 whole entry, stated change not applied) above
T2 sequence (P10275 whole entry T878A): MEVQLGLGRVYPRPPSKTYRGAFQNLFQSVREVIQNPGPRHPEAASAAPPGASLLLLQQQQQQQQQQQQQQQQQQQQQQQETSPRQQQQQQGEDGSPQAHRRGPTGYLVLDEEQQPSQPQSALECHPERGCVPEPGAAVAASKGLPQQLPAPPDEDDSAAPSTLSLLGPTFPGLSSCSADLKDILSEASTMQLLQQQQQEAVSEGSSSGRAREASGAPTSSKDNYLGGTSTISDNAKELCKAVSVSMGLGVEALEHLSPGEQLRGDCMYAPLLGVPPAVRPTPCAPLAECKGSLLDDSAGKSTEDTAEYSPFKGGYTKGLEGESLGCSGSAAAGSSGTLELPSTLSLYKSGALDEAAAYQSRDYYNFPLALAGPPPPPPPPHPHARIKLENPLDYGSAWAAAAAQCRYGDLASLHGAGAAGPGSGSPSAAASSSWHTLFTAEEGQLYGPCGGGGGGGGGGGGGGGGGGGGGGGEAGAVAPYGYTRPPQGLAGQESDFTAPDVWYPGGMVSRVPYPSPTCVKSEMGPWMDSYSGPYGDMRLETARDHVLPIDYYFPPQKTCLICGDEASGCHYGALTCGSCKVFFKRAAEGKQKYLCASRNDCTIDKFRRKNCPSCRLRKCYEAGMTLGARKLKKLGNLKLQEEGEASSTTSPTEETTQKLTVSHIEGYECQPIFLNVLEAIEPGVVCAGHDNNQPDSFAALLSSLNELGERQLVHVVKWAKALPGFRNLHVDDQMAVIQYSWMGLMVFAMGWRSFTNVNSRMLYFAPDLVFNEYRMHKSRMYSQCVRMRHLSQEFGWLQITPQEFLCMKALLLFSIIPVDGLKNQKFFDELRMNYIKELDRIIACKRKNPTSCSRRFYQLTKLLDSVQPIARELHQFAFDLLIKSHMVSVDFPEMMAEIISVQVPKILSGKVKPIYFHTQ
T2 sequence (Q96SW2 whole entry): as the sequence (Q96SW2 whole entry, stated change not applied) above
T2 sequence (Q16531 whole entry partner): as the sequence (Q16531 whole entry, stated change not applied, further chain) above

Structure (SMILES): Cc1ccc(C(=O)Nc2ccc(CN3CCN(Cc4ccc(C5CCC(=O)NC5=O)c(F)c4)CC3)c(C(F)(F)F)c2)cc1C#Cc1cnc2cccnn12 (stereo not shown) [GT-03937, N-(4-((4-(4-(2,6-dioxopiperidin-3-yl)-3-fluorobenzyl)piperazin-1-yl)methyl)-3-(trifluoromethyl)phenyl)-3-(imidazo[1,2-b]pyridazin-3-ylethynyl)-4-methylbenzamide]
- IC50 [7]: 50 to 100 nM
- IC50 [8, 14]: 100 to 500 nM
- IC50 [1]: 50 to 100 nM
- IC50 [2]: 50 to 100 nM
- IC50 [9]: 50 to 100 nM
- IC50 [10]: 100 to 500 nM
- Degradation of substrate protein BCR-ABL (substrate protein remaining %) [13]: A (A is defined as 0% ≤ substrate protein remaining % ≤ 80%)

Structure (SMILES): O=C1CCC(c2ccc(CN3CCC(N4CCN(c5ncc(C(=O)Nc6ccc(OC(F)(F)Cl)cc6)cc5-c5cc[nH]n5)CC4)CC3)cc2)C(=O)N1 (stereo not shown) [GT-04058, N-(4-(chlorodifluoromethoxy)phenyl)-6-(4-(1-(4-(2,6-dioxopiperidin-3-yl)benzyl)piperidin-4-yl)piperazin-1-yl)-5-(1H-pyrazol-3-yl)nicotinamide]
- Degradation of substrate protein BCR-ABL (substrate protein remaining %) [13]: A (A is defined as 0% ≤ substrate protein remaining % ≤ 80%)

Structure (SMILES): CN(Cc1ccc(C2CCC(=O)NC2=O)cc1)C1CCN(c2ccc(C(=O)Nc3n[nH]c4ccc(Cc5cc(F)cc(F)c5)cc34)c(NC3CCOCC3)c2)CC1 (stereo not shown) [GT-03964, N-(5-(3,5-difluorobenzyl)-1H-indazol-3-yl)-4-(4-((4-(2,6-dioxopiperidin-3-yl)benzyl)(methyl)amino)piperidin-1-yl)-2-((tetrahydro-2H-pyran-4-yl)amino)benzamide]
- Degradation of substrate protein TRK (substrate protein remaining %) [6]: A (A is defined as 0% ≤ substrate protein remaining % ≤ 80%)

Structure (SMILES): O=C1CC[C@H](N2Cc3cc(N4CCN(CC5CCN(c6ccc([C@@H]7c8ccc(O)cc8CC[C@@H]7c7ccccc7)cc6)CC5)CC4)ccc3C2=O)C(=O)N1 [ARV-471, reference compound]
- IC50 [7]: 1000 to 5000 nM
- IC50 ([8]; read-out: Inhibitory activity (IC50) on tumor cell proliferation, MGC80-3): > 10000 nM
- IC50 [1]: > 10000 nM
- IC50 [2]: > 10000 nM
- IC50 [3]: > 10000 nM
- IC50 [4]: > 10000 nM

Structure (SMILES): CN(Cc1ccc(C2CCC(=O)NC2=O)c(F)c1)C1CCN(c2ccc(C(=O)Nc3n[nH]c4ccc(Cc5cc(F)cc(F)c5)cc34)c(NC3CCOCC3)c2)CC1 (stereo not shown) [GT-03965, N-(5-(3,5-difluorobenzyl)-1H-indazol-3-yl)-4-(4-((4-(2,6-dioxopiperidin-3-yl)-3-fluorobenzyl)(methyl)amino)piperidin-1-yl)-2-((tetrahydro-2H-pyran-4-yl)amino)benzamide]
- Degradation of substrate protein TRK (substrate protein remaining %) [6]: A (A is defined as 0% ≤ substrate protein remaining % ≤ 80%)

Structure (SMILES): O=C1CCC(c2ccc(CN3CCC(N4CCN(c5ncc(C(=O)Nc6ccc(OC(F)(F)Cl)cc6)cc5-c5cc[nH]n5)CC4)CC3)cc2F)C(=O)N1 (stereo not shown) [GT-04059, N-(4-(chlorodifluoromethoxy)phenyl)-6-(4-(1-(4-(2,6-dioxopiperidin-3-yl)-3-fluorobenzyl)piperidin-4-yl)piperazin-1-yl)-5-(1H-pyrazol-3-yl)nicotinamide]
- IC50 [7]: 100 to 500 nM
- IC50 [8, 14]: 500 to 1000 nM
- Degradation of substrate protein BCR-ABL (substrate protein remaining %) [13]: A (A is defined as 0% ≤ substrate protein remaining % ≤ 80%)

Continued, in another order:

- IC50 [1]: 100 to 500 nM
- IC50 [2]: 100 to 500 nM
- IC50 [4]: 500 to 1000 nM
Structure (SMILES): O=C1CCC(c2ccc(CN3CCN(c4ccc([C@@H]5c6ccc(O)cc6CC[C@@H]5c5ccccc5)cc4)CC3)cc2)C(=O)N1 (stereo partly drawn) [GT-03856, 3-(4-((4-(4-((1R,2S)-6-hydroxy-2-phenyl-1,2,3,4-tetrahydronaphthalen-1-yl)phenyl)piperazin-1-yl)methyl)phenyl)piperidine-2,6-dione]
- IC50 [3]: 100 to 500 nM

- inhibition at 0.5 µM ([5]; at 0.5µM, read-out: Inhibition rate (%) at 0.5µM): 60 to 80%
- inhibition at 2 µM ([5]; at 2 µM, read-out: Inhibition rate (%) at 2 µM): 80 to 100%
Structure (SMILES): CN(Cc1ccc(C2CCC(=O)NC2=O)cc1)C1CCN(c2cccc(-c3cnc4ccc(N5CCC[C@@H]5c5cccc(F)c5)nn34)n2)CC1 (stereo partly drawn) [GT-03898, 3-(4-(((1-(6-(6-((R)-2-(3-fluorophenyl)pyrrolidin-1-yl)imidazo[1,2-b]pyridazin-3-yl)pyridin-2-yl)piperidin-4-yl)(methyl)amino)methyl)phenyl)piperidine-2,6-dione]
- Degradation of substrate protein TRK (substrate protein remaining %) [6]: A (A is defined as 0% ≤ substrate protein remaining % ≤ 80%)

- IC50 [7]: 1000 to 5000 nM
- IC50 [8, 14]: 5000 to 10000 nM
- IC50 [1]: > 10000 nM
- IC50 [2]: 1000 to 5000 nM
- IC50 [9]: 5000 to 10000 nM
Structure (SMILES): Cc1nc(Nc2ncc(C(=O)Nc3c(C)cccc3Cl)s2)cc(N2CCN(CCO)CC2)n1 [Dasatinib, reference compound]
- IC50 [10]: 100 to 500 nM

- IC50 [11]: 500 to 1000 nM
Structure (SMILES): Cc1ccc(-c2c(C)noc2C)cc1N(CC1CCN(Cc2ccc(N3CCC(=O)NC3=O)cn2)CC1)c1ccc(C2(C#N)CC2)cc1 [GT-06411, 1-(4-((5-(3,5-dimethylisoxazol-4-yl)-2-methylphenyl)((1-((5-(2,4-dioxotetrahydropyrimidin-1(2H)-yl)pyridin-2-yl)methyl)piperidin-4-yl)methyl)amino)phenyl)cyclopropane-1-carbonitrile]
- Degradation of substrate protein AR (substrate protein remaining %) [12]: A (A is defined as 0% ≤ substrate protein remaining % ≤ 80%)

- IC50 [7]: 100 to 500 nM
- IC50 [8, 14]: 100 to 500 nM
- IC50 [1]: 100 to 500 nM
- IC50 [2]: 50 to 100 nM
- IC50 [9]: 100 to 500 nM
Structure (SMILES): Cc1ccc(C(=O)Nc2ccc(CN3CCN(Cc4ccc(C5CCC(=O)NC5=O)cc4)CC3)c(C(F)(F)F)c2)cc1C#Cc1cnc2cccnn12 (stereo not shown) [GT-03936]
- IC50 [10]: 100 to 500 nM
